Assay results from PMC6946680, “Modulation of brain cation-Cl^− cotransport via the SPAK kinase inhibitor ZT-1a” (Nature Communications, 2020).
“And” between values parts separate entries of the source, which are not always exact repeats. Identical values can stand only once. Like-named read-outs stand apart in the source and are kept apart here.

Key:
HEK-293 cells = test: 86Rb+ uptake assay in empty-vector-transfected HEK-293 cells; assay type: cell-based, human; parameters: key: 86Rb+ uptake in CPM per mg protein; settings: Empty V + 1a (10 µM), replicates
Procedure: Thirty-six hours post transfection, cells were exposed for 30 min to either control isotonic conditions or hypotonic low [Cl^−] conditions (to activate the SPAK/OSR1 pathway), and then treated for an additional 30 min in the same conditions with the indicated ZT-1a concentrations in the presence of 1 mM ouabain and 0.1 mM bumetanide. Ten-minute ^86Rb^+ uptake values were quantified by scintillation counting, normalized per mg protein for each condition, and plotted for both isotonic and hypotonic conditions. ***p < 0.001; **p < 0.01; *p < 0.05; ns—nonsignificant [by one-way ANOVA with post hoc testing (n = 6, error bars represent the mean ± SEM)]. b ^86Rb^+ uptake assays in the presence of ZT-1a measure transport activity of NKCC1. […] Thirty-six hours post transfection, cells were exposed for 30 min to either control isotonic conditions or hypotonic low [Cl^−] conditions (to activate the SPAK/OSR1 pathway), and then treated in the same conditions for an additional 30 min with 10 µM ZT-1a or 0.1 mM bumetanide (Bum) in the presence of 1 mM ouabain (Na^+/K^+-ATPase inhibitor). ^86Rb^+ uptake was allowed to proceed for 10 min and was then quantified by scintillation counting. ^86Rb^+ uptake CPMs were normalized per mg protein and plotted for both isotonic and hypotonic conditions. […] Thirty-six hours post transfection, cells were exposed for 30 min to either control isotonic conditions or hypotonic low [Cl^−] conditions (to activate the SPAK/OSR1 pathway), and then treated for an additional 30 min in the same conditions with the indicated ZT-1a concentrations in the presence of 1 mM ouabain. Ten-minute ^86Rb^+ uptake values were quantified by scintillation counting, normalized per mg protein for each condition, and plotted for both isotonic and hypotonic conditions. ***p < 0.001; **p < 0.01; *p < 0.05; ns—nonsignificant [by one-way ANOVA with post hoc testing (n = 6, error bars represent the mean ± SEM)].
This stimulating medium was then removed and replaced with isotonic medium containing inhibitors plus 2 µCi/ml ^86Rb^+. After incubation for 10 min at 37 °C, cells were rapidly washed three times with the respective ice-cold nonradioactive medium. Washed cells were lysed in 300 µl of ice-cold lysis buffer and ^86Rb^+ uptake was quantitated by liquid scintillation counting (PerkinElmer).

[1] = ZT-1a pharmacokinetic properties in naive mice; assay type: in vivo, ICR mice; settings: mouse, plasma; for MRT inf: read-out: MRT(0-∞)
Procedure: 1 Supplemental Table 3. ZT-1a pharmacokinetic (PK) properties in naïve mice.
2 ZT-1a pharmacokinetics were determined following a single 5 mg/kg intravenous (IV) dose and a single 10 mg/kg oral (PO) dose in
3 ICR mice (N = 3 at each time point).
Samples were subjected to drug assay by LC-MS/MS, and data were analyzed by WinNonlin V6.3. Tmax =
5 time of maximum plasma concentration, Cmax = maximum plasma concentration, AUC = area under the curve (measure of exposure),
6 T1/2 = half life, CL = plasma clearance, Vz = volume of distribution, MRT, mean residence time; F = oral bioavailability.

SPAK pSer373 = test: Choroid plexus SPAK/OSR1 immunoblot in rat post-hemorrhagic hydrocephalus (IVH) model; assay type: in vivo
[2] = test system: mouse model of ischemic stroke (tMCAO); test: Ex vivo T2-weighted MRI and DTI of brains 7 days post tMCAO; assay type: in vivo
pERK1/2 = test: Immunoblot of phospho-ERK1/2 in ischemic mouse brain; assay type: in vivo; settings: for pERK/Na K pump (fold veh-CL): Membrane
From the text: Cytosol and crude membrane protein
Expressions of Na+-K+ ATPase
respectively. d Densitometric analyses of immunoblots.

AMPK (hum) = test: Kinase profiling panel; assay type: biochemical, human
Procedure: Supplementary Table 2. ZT-1a kinase profiling data6.
ZT-1a was tested at 10 and 1 µM against a panel of 140 recombinant kinases in an enzymatic
activity-based assay performed by the International Centre for Kinase Profiling in the MRC
Protein Phosphorylation and Ubiquitylation Unit. Values represent % residual kinase activity

tSPAK tOSR1 = test: Immunoblot of total SPAK/OSR1 in ischemic mouse brain membrane and cytosol fractions; assay type: in vivo; settings: Membrane, single samples
From the text: Supplement 41467_2019_13851_MOESM4_ESM.zip/Source Data.xlsx, sheet "Fig S11b and c" | column: tSPAK tOSR1/Na K pump (fold veh-CL)

pKCC3 pThr991/pThr1048 = test: Immunoblot of pKCC3 in ischemic mouse brain membrane fractions; settings: for KCC3 / Na-K pumb / pThr991 / KCC3 / pThr991 / Na-K pumb / pThr1048 / KCC3 / pThr1048 / Na-K pumb: Fig 8, individual samples
pNKCC1 (pThr203/207/212) = test: Immunoblot of pNKCC1 in ischemic mouse brain membrane fractions; settings: for NKCC1 / Na-K pumb / pThr203/207/212 / NKCC1: Fig 8, individual samples
[3] = rat CPe 48 h post IVH + 1a, replicates
[4] = 7 days post stroke, ZT-1a 5.0 mg/kg
[5] = compared with vehicle-control mice
[6] = post-stroke ZT-1a 5 mg/kg, 24 h reperfusion

Cc1cc(C(C#N)c2ccc(Cl)cc2)c(Cl)cc1NC(=O)c1cc(Cl)ccc1O (stereo not shown) [ZT-1a, 5-chloro-N-(5-chloro-4-((4-chlorophenyl)(cyano)methyl)-2-methylphenyl)-2-hydroxybenzamide]
86Rb+ uptake (HEK-293 cells; Fig 3a, Hypotonic low Cl-, ouabain + bumetanide): 508.8 and 600.6 and 529.6 and 455.1 and 564.1 and 478.5
86Rb+ uptake (HEK-293 cells; Fig 3a, Isotonic control, ouabain + bumetanide): 1279.7 and 1082.2 and 1111.5 and 1436.1 and 1321.4 and 1109.8
86Rb+ uptake (HEK-293 cells; Fig 3b, Hypotonic low Cl-, ouabain): 1181.7 and 899.6 and 1029.4 and 1120.4 and 1269.1 and 946.3
86Rb+ uptake (HEK-293 cells; Fig 3b, Isotonic control, ouabain): 905.2 and 735.8 and 874.1 and 801.5 and 957.4 and 886.4
AUC ([1]; ICR, intravenous, 5 mg/kg, naive mice): 2340 ng·h/mL
half-life ([1]; ICR, intravenous, 5 mg/kg, naive mice, read-out: T1/2 (plasma half-life) (converted)): 108 min
half-life ([1]; ICR, iv, 5 mg/kg, IV 5 mg/kg, ICR mice, read-out: t1/2 (converted)): 108 min
bioavailability ([1]; ICR, oral, 10 mg/kg, naive mice): 2.2%
half-life ([1]; ICR, po, 10 mg/kg, PO 10 mg/kg, ICR mice, read-out: t1/2 (converted)): 156 min
AUC(0-inf) ([1]; IV 5 mg/kg, ICR mice): 2350 ng·h/mL
AUC(0-t) ([1]; IV 5 mg/kg, ICR mice): 2340 ng·h/mL
C0 ([1]; IV 5 mg/kg, ICR mice): 14900 ng/mL
Cmax ([1]; IV 5 mg/kg, ICR mice): 6910 ng/mL
Tmax ([1]; IV 5 mg/kg, ICR mice): 4.8 min
clearance ([1]; IV 5 mg/kg, ICR mice): 35.5 mL/min/kg
MRT inf ([1]; IV 5 mg/kg, ICR mice): 0.45 h
Vd ([1]; IV 5 mg/kg, ICR mice, read-out: Vz): 0.948 L/kg
AUC(0-inf) ([1]; PO 10 mg/kg, ICR mice): 105 ng·h/mL
AUC(0-t) ([1]; PO 10 mg/kg, ICR mice): 97.3 ng·h/mL
Cmax ([1]; PO 10 mg/kg, ICR mice): 94 ng/mL
Tmax ([1]; PO 10 mg/kg, ICR mice): 15 min
bioavailability ([1]; PO 10 mg/kg, ICR mice): 2.2%
MRT inf ([1]; PO 10 mg/kg, ICR mice): 3.3 h
SPAK / Actin (SPAK pSer373; [3]): 2.39 and 2.21 and 2.2 and 2.51 and 2.16 and 2.37
SPAK pSer373 / Actin (SPAK pSer373; [3]): 0.69 and 0.85 and 1.13 and 0.73 and 0.89 and 1.07
reduction of IVH-induced expression of pSPAK in CPe (SPAK pSer373; rat, ICV ZT-1a, 48 h post IVH, n = 3): 55 ± 3.6%
EC tract FA values in the IL hemisphere [2, 4]: undiminished
reduction of brain atrophy (% hemisphere shrinkage) [2, 4]: ~ 41%
reduction of stroke-induced lesion volume (T2-weighted MRI) [2, 4]: ~ 40%
EC FA value ([2]; Fig 7d, CL hemisphere, individual brains): 0.3452 and 0.2737 and 0.3976 and 0.3529 and 0.3132 and 0.3022 and 0.3144
EC FA value ([2]; Fig 7d, IL hemisphere, individual brains): 0.3284 and 0.2019 and 0.3515 and 0.3727 and 0.2854 and 0.2283 and 0.2974
% Shrinkage ([2]; Fig 7d, individual brains): 4.31% and 1.96% and 1.98% and 5.61% and 5.20% and 3.63% and 2.52%
Lesion volume (mm3) ([2]; Fig 7d, individual brains): 33.98 mm3 and 34.15 mm3 and 17.99 mm3 and 33.62 mm3 and 29.17 mm3 and 52.2 mm3 and 18.61 mm3
pERK/GAPDH (fold veh-CL) (pERK1/2; Cytosol, CL, Fig S4d): 1.33 fold veh-CL and 1.29 fold veh-CL and 0.75 fold veh-CL
pERK/Na K pump (fold veh-CL) (pERK1/2; CL, Fig S4d): 1.45 fold veh-CL and 1.52 fold veh-CL and 1.76 fold veh-CL
pERK/Na K pump (fold veh-CL) (pERK1/2; IL, Fig S4d): 1.27 fold veh-CL and 2.10 fold veh-CL and 1.54 fold veh-CL
p-ERK in ischemic brains (pERK1/2; ZT-1a 5.0 mg/kg): no marked inhibition
% residual kinase activity (AMPK (hum); 1 µM): 126±4%
% residual kinase activity (AMPK (hum); 10 µM): 108±4%
tSPAK tOSR1/Na K pump (fold veh-CL) (tSPAK tOSR1): 0.93 fold veh-CL and 1.11 fold veh-CL and 1.70 fold veh-CL and 1.17 fold veh-CL and 1.58 fold veh-CL
KCC3 / Na-K pumb (pKCC3 pThr991/pThr1048; CL hemisphere): 1.336 and 1.197 and 1.267 and 1.158 and 1.265 and 1.361
pThr991 / KCC3 (pKCC3 pThr991/pThr1048; CL hemisphere): 1.218 and 1.115 and 1.236 and 1.366 and 1.064 and 1.128
pThr991 / Na-K pumb (pKCC3 pThr991/pThr1048; CL hemisphere): 1.627 and 1.334 and 1.565 and 1.429 and 1.509 and 1.618
pThr1048 / KCC3 (pKCC3 pThr991/pThr1048; CL hemisphere): 1.138 and 0.971 and 0.993 and 1.217 and 1.116 and 0.937
pThr1048 / Na-K pumb (pKCC3 pThr991/pThr1048; CL hemisphere): 1.52 and 1.162 and 1.258 and 1.37 and 1.22 and 1.531
KCC3 / Na-K pumb (pKCC3 pThr991/pThr1048; IL hemisphere): 1.177 and 1.337 and 1.176 and 1.207 and 1.288 and 1.143
pThr991 / KCC3 (pKCC3 pThr991/pThr1048; IL hemisphere): 0.804 and 0.867 and 0.759 and 0.638 and 0.69 and 0.743
pThr991 / Na-K pumb (pKCC3 pThr991/pThr1048; IL hemisphere): 0.946 and 0.897 and 1.023 and 0.942 and 0.889 and 0.849
pThr1048 / KCC3 (pKCC3 pThr991/pThr1048; IL hemisphere): 0.646 and 0.719 and 0.618 and 0.673 and 0.737 and 0.686
pThr1048 / Na-K pumb (pKCC3 pThr991/pThr1048; IL hemisphere): 0.76 and 0.987 and 0.854 and 0.792 and 0.949 and 0.785
reduction of ischemia-induced elevation of pKCC3 (pKCC3 pThr991/pThr1048; [5]): 30%
ischemia-induced increase of pKCC3 (pKCC3 pThr991/pThr1048; [6]): prevented
NKCC1 / Na-K pumb (pNKCC1 (pThr203/207/212); CL hemisphere): 1.613 and 1.481 and 1.6 and 1.576 and 1.424 and 1.642
pThr203/207/212 / NKCC1 (pNKCC1 (pThr203/207/212); CL hemisphere): 0.451 and 0.437 and 0.265 and 0.378 and 0.429 and 0.303
NKCC1 / Na-K pumb (pNKCC1 (pThr203/207/212); IL hemisphere): 1.43 and 1.528 and 1.481 and 1.417 and 1.587 and 1.394
pThr203/207/212 / NKCC1 (pNKCC1 (pThr203/207/212); IL hemisphere): 0.461 and 0.418 and 0.385 and 0.452 and 0.396 and 0.372
reduction of ischemia-induced elevation of pNKCC1 (pNKCC1 (pThr203/207/212); [5]): 55–65%
ischemia-induced increase of pNKCC1 (pNKCC1 (pThr203/207/212); [6]): prevented
